Measurements: patent US20240358829A1, “Lymphocyte Population and Methods for Producing Same” (AVM Biotechnology, LLC, priority 2021, published 2024)
Several values for one entry are separate records, joined by “and”; a condition that tells them apart may be missing. Identical values can stand only once.

Legend:
[1] = tested on: lymphocytes and myeloid cells; assay: Humanized mice experiments LYDEP 43 and 45, lymphoid versus myeloid cells (FSC vs SSC); format: in vivo, mouse
Experimental: (§1) Female huNOG-EXL mice (n=6) were obtained from Taconic Bioscience (Germantown, NY). Female huCD34-NCG mice (n=8) were obtained from Charles River (Wilmington, MA). Mice from both facilities were acclimated to laboratory conditions for at least 5-6 days.
(§2) After first (03/01/2021) and second dose 1 week later (03/08/2021), when mice reached predetermined time point, they were bled up to 70 μL of blood/mouse via cheek puncture. The blood was analyzed via flow cytometry. After third dose 28 days after the previous dose (on Apr. 5, 2021), when mice reached the study time point, they were euthanized under standard operating procedure summarized here: Mice were anesthetized with isoflurane gas.
(§3) All flow cytometry was performed in house. Blood, spleen, thymus, and bone marrow were processed via standard staining protocol for flow cytometry. MACSQUANT 16 was used for flow cytometry. Antibody panels slightly varied between first, second and third dose. Markers in the flow panel after first dose analysis included Live/Dead, hCD45, mCD45, hCD56, hTCRgd, hCD3, hCD8, hCD16, hCD19, hCD14. Markers in the flow panel after second dose included all the above, plus hTCRab and hiTCR. In the blood analysis after second dose, 7AAD, CD14 and CD19 were included together in a dump channel. […] For the third dose panel design, when full sac was performed, all markers mentioned above were assigned unique channels to avoid overlap, but TCRab was not included in the final panel due to open channel limitations.
(§4) For cheek bleeds, 70 ul of blood was collected in EDTA coated microtainer and proceeded for immunostaining. […] Blood was stained for live dead marker for 10 min at Room temperature and then for the surface antibodies mentioned above for 20 minutes at room temperature in dark. RBCs were lysed with BD FACS lysing buffer and washed with DPBS and resuspended in 300 ul DBPS. 250 ul of sample was run on MACSquant 16 flow cytometer.

[2] = tested on: peripheral blood mononuclear cells or single cell splenocytes; assay: In vitro apoptosis of mononuclear cells or splenocytes incubated with AVM0703; format: cell-based, mouse; details: concentrations equivalent to in vivo peak blood concentrations of acute high dose, out to 72 hours
[3] = tested on: hCD45+CD56+γδTCR+invTCR+ cells; assay: Humanized mice experiments LYDEP 43 and 45, flow cytometry of blood and bone marrow; format: in vivo, mouse
Experimental: as §1, §2
Spleen, Thymus, femurs, and sternum were collected for all mice. Spleen and thymus were processed into single cell suspension for analysis via flow cytometry. Bones were cleaned of muscle using gauze soaked with 70% ethanol and processed for bone marrow to analyze via flow cytometry. Pancreas and colon dissection were performed according to video and instructional JoVE files. The feces were expelled via administering ice-cold PBS with a 22-gauge gavage tube from colon. Other organs like small intestines, cecum, kidneys, lungs, and liver were also collected. All organ weights were recorded after removing excess liquid from the exterior. Soft organs were first fixed in 4% PFA and then transferred to 70% ethanol 24 hrs later and stored at 4° C. Bones were stored directly in 70% ethanol at 4° C. Blood was processed for flow cytometry analysis, and serum collection.
as §3, §4

[4] = mouse M88, after a first dose (32 mg/kg)
[5] = CR (Charles River) humanized mice, AVM0703 72 hrs
[6] = Tac (Taconic) humanized mice, AVM0703 72 hrs
[7] = blood, mouse 10 Taconic NOG-EXL, FIG. 24

Question: `C[C@@H]1C[C@H]2[C@@H]3CCC4=CC(=O)C=C[C@]4(C)[C@@]3(F)[C@@H](O)C[C@]2(C)[C@@]1(O)C(=O)COP(=O)(O)O` [AVM0703, dexamethasone sodium phosphate] was tested. Which “% of total mouse WBCs that were lymphoid cells, range” value ([1]; AVM0703 treated humanized mice) did it give?
Answer: Its value is 2%-20.4%.

Question: What about the “% of total mouse WBCs that were lymphoid cells, average” value ([1]; AVM0703 treated humanized mice (Placebo 12.7%)) of the same molecule?
Answer: Its value is 10.62%.

Question: And the myeloid cell production ([1]; humanized mice that largely lack myeloid compartments)?
Answer: The myeloid cell production was “induced myeloid cell production”.

Question: What about the “human lymphocytes, % of total human WBCs” value ([1]; mouse M01, after a first dose) of the same molecule?
Answer: Its value is 67%.

Question: What about the “mouse lymphocytes, % of total WBCs” value ([1]; mouse M01, after a first dose) of the same molecule?
Answer: Its value is 6.7%.

Question: And the “total lymphocytes, % of total WBCs” value ([1]; mouse M01, after a first dose)?
Answer: The value was 35%.

Question: And the “human lymphocytes, % of total human WBCs” value ([1]; mouse M03, after a first dose)?
Answer: The value was 47%.

Question: What about the “mouse lymphocytes, % of total WBCs” value ([1]; mouse M03, after a first dose) of the same molecule?
Answer: The value was 23.7%.

Question: What about the “total lymphocytes, % of total WBCs” value ([1]; mouse M03, after a first dose) of the same molecule?
Answer: Its value is 40%.

Question: And the “human lymphocytes, % of total human WBCs” value ([1]; mouse M05, after a first dose)?
Answer: Its value is 50.1%.

Question: And the “mouse lymphocytes, % of total WBCs” value ([1]; mouse M05, after a first dose)?
Answer: Its value is 2.0%.

Question: What about the “total lymphocytes, % of total WBCs” value ([1]; mouse M05, after a first dose) of the same molecule?
Answer: Its value is 20.9%.

Question: And the “human lymphocytes, % of total human WBCs” value ([1]; mouse M07, after a first dose)?
Answer: The value was 58.2%.

Question: And the “mouse lymphocytes, % of total WBCs” value ([1]; mouse M07, after a first dose)?
Answer: The value was 20.4%.

Question: And the “total lymphocytes, % of total WBCs” value ([1]; mouse M07, after a first dose)?
Answer: The value was 41.9%.

Question: And the “human lymphocytes, % of total human WBCs” value ([1]; mouse M10, after a first dose)?
Answer: The value was 37.5%.

Question: And the “mouse lymphocytes, % of total WBCs” value ([1]; mouse M10, after a first dose)?
Answer: The value was 5.2%.

Question: What about the “total lymphocytes, % of total WBCs” value ([1]; mouse M10, after a first dose) of the same molecule?
Answer: Its value is 28.1%.

Question: And the “human lymphocytes, % of total human WBCs” value [1, 4]?
Answer: The value was 58%.

Question: What about the “mouse lymphocytes, % of total WBCs” value [1, 4] of the same molecule?
Answer: The value was 5.7%.

Question: And the “total lymphocytes, % of total WBCs” value [1, 4]?
Answer: Its value is 32%.

Question: What about the apoptosis [2] of the same molecule?
Answer: The apoptosis was “no apoptosis was observed”.

Question: What about the “hCD45+(CD56+gdTCR+ inTCR+)” value [3, 5] of the same molecule?
Answer: The value was 4.4% and 1.8% and 2.3% and 3.5%.

Question: And the “hCD45+(CD56+gdTCR+)” value [3, 5]?
Answer: The value was 4.7% and 6.3% and 1.1% and 1.6%.

Question: And the “hCD45+(CD56+gdTCR+)” value ([3]; CR (Charles River) humanized mice, AVM0703 96 hrs)?
Answer: The value was 1.1% and 0.4% and 4.4% and 1.4%.

Question: What about the “hCD45+(CD56+gdTCR+ inTCR+)” value [3, 6] of the same molecule?
Answer: The value was 0.7%.

Question: And the “hCD45+(CD56+gdTCR+)” value [3, 6]?
Answer: Its value is 10.5% and 3.4%.

Question: And the “hCD45+(CD56+gdTCR+ inTCR+)” value ([3]; Tac (Taconic) humanized mice, AVM0703 96 hrs)?
Answer: The value was 22.6% and 41.9%.

Question: What about the “% of hCD45+CD56+gdTCR+ cells expressing invariant TCR” value ([3]; blood, CRL-NCG humanized mice, >18 mg/kg HED) of the same molecule?
Answer: Its value is “More than 97%”.

Question: And the “bi-specific immune cell mobilization, % of hCD45+ cells” value ([3]; blood, humanized mice, >18 mg/kg HED)?
Answer: The value was 2-12%.

Question: And the “% of hCD45+ dim CD56+ gdTCR+ cells positive for CD8 and for CD16” value [3, 7]?
Answer: The value was “More than 80%”.

Question: What about the “CD56+ TCRγδ+ cells, % of hCD45+ cells” value [3, 7] of the same molecule?
Answer: The value was 12%.

Question: And the “bi-specific immune cells, % of hCD45+ cells” value (“bi-specific immune cells, %” below) ([3]; blood, mouse M1, CRL-NCG, >18 mg/kg HED)?
Answer: The value was 3.35%.

Question: And the “bi-specific immune cells, %” value ([3]; blood, mouse M3, CRL-NCG, >18 mg/kg HED)?
Answer: Its value is 4.13%.

Question: And the “bi-specific immune cells, %” value ([3]; blood, mouse M5, CRL-NCG, >18 mg/kg HED)?
Answer: Its value is 5.14%.

Question: And the “bi-specific immune cells, %” value ([3]; blood, mouse M7, CRL-NCG, >18 mg/kg HED)?
Answer: Its value is 2.37%.

Question: And the “% of human CD45+CD56+ cells bispecific for TCRγδ and invariant TCR and CD16 positive” value ([3]; bone marrow, 48-60 hours after a third repeat dose of 32 mg/kg HED)?
Answer: Its value is “More than 60%”.

Question: What about the “expression and mobilization of human CD56+γδTCR+invTCR+ immune cells” value ([3]; both vendors, all 6 umbilical cord blood donors, 32 mg/kg DP oral) of the same molecule?
Answer: The value was “induced the expression and mobilization”.

Question: What about the “% of bispecific γδTCR+invTCR+ bone marrow cells that are CD16+” value ([3]; humanized mice, >18 mg/kg HED) of the same molecule?
Answer: Its value is “Around 90%”.

Question: And the “bi-specific immune cells in bone marrow, % of hCD45+ cells” value ([3]; humanized mice, >18 mg/kg HED)?
Answer: Its value is 0.3-8.5%.
